Source: patent US20260103686A1, “MICROBIAL STRAIN, PROTEIN, AND METHOD FOR PRODUCING GALLIC ACID USING MICROBIAL STRAIN OR PROTEIN” (UNIVERSITY OF TSUKUBA, priority 2022, published 2026)
Like-named read-outs stand apart in the source and are kept apart here.

What was measured:
[1] = target: Hylemonella gracilis-derived PobA (HgPobA, SEQ ID NO: 20) variant HgPobA-TY, T302A/Y393F (gene SEQ ID NO: 37) (Hylemonella gracilis, UniProt F3KT36, T302A/Y393F); assay: Reaction kinetic analysis of HgPobA-TY
Protocol: The cell-free extracts were subjected to a HisTrap HP column (GE healthcare) which was equilibrated with an equilibration buffer (20 mM Tris-HCl buffer (pH 7.9), 20 mM imidazole), and then fractions eluted with an eluent (20 mM Tris-HCl buffer (pH 7.9), 500 mM imidazole) were collected.
The protein concentrations of the purified enzyme liquids were measured using Bio-Rad Protein Assay Dye Reagent Concentrate (Bio-Rad, USA), and the purified enzyme liquids were diluted to 1 of mg/mL with a buffer.

[2] = target: Pseudomonas aeruginosa-derived PobA (PaPobA), p-hydroxybenzoate hydroxylase, wild type, SEQ ID NO: 28 (Pseudomonas aeruginosa, UniProt P20586); assay: Reaction kinetic analysis of PaPobA (comparison); conditions: PCA substrate (2 mM), 200 µM NADPH, 10 µM FAD, pH 7.9, 25° C., 340 nm
Text: A polynucleotide encoding Pseudomonas aeruginosa-derived PobA was artificially synthesized based on the gene sequence information of Pseudomonas aeruginosa-derived PobA (PaPobA) (SEQ ID NO: 14).

[3] = test system: Hydrogenophaga sp.-derived PobA (HyPobA), protocatechuic acid 5-hydroxylase, wild type, SEQ ID NO: 21; assay: Reaction kinetic analysis of HyPobA; format: biochemical; conditions: 200 µM NADPH, 10 µM FAD, pH 7.9, 25° C., 340 nm
Text: By the same procedures, a target […] plasmid was obtained based on the gene sequence information of Hydrogenophaga sp.-derived PobA (HyPobA) (SEQ ID NO: 4). The base sequences of primers 3 and 4 used are shown below.

[4] = test system: Polaromonas sp.-derived PobA (PoPobA), protocatechuic acid 5-hydroxylase, wild type, SEQ ID NO: 22; assay: Reaction kinetic analysis of PoPobA; format: biochemical; conditions: 200 µM NADPH, 10 µM FAD, pH 7.9, 25° C., 340 nm
Text: By the same procedures, a target pRSF-PoPobA plasmid was obtained based on the gene sequence information of Polaromonas sp.-derived PobA (PoPobA) (SEQ ID NO: 7). The base sequences of primers 5 and 6 used are shown below.

[5] = PCA substrate, read-out: Km^app (PCA)
[6] = read-out: Km^app (pHBA), pHBA substrate

Chain of Hylemonella gracilis-derived PobA (HgPobA, SEQ ID NO: 20) variant HgPobA-TY, T302A/Y393F (gene SEQ ID NO: 37) (F3KT36 1-402 T302A/Y393F): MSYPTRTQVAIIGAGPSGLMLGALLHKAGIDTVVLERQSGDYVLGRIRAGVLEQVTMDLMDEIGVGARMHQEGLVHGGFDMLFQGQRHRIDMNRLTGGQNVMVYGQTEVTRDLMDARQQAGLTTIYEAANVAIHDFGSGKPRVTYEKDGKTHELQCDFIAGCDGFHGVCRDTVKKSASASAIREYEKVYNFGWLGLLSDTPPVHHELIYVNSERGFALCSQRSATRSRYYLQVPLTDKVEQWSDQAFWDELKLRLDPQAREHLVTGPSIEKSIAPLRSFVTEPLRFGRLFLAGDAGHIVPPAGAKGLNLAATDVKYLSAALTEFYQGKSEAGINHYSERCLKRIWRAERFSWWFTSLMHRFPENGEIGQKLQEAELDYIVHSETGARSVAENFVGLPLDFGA
Chain of Pseudomonas aeruginosa-derived PobA (PaPobA), p-hydroxybenzoate hydroxylase, wild type, SEQ ID NO: 28 (P20586 whole entry): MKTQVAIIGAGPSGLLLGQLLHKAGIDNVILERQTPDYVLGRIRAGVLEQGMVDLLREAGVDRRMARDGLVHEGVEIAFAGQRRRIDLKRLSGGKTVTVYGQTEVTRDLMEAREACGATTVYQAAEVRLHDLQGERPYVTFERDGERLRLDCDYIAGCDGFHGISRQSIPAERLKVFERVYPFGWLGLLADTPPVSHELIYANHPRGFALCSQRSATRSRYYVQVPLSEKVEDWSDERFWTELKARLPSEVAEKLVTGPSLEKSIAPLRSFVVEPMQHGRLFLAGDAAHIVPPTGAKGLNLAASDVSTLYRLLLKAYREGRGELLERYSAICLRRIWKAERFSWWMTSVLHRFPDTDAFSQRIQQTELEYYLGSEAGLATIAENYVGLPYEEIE

SMILES	kcat value for PCA relative to PaPobA ([1]; HgPobA-TY versus PaPobA) [times]	kcat^app (PCA) ([1]; PCA substrate (2 mM), 200 µM NADPH, 10 µM FAD, pH 7.9, 25° C., 340 nm) [s⁻¹]	kcat^app (PCA) [2] [s⁻¹]	kcat^app (PCA) ([3]; PCA substrate (2 mM)) [s⁻¹]	Km [3, 5] [µM]	kcat^app (PCA) ([4]; PCA substrate (2 mM)) [s⁻¹]	Km [4, 5] [µM]	Km [3, 6] [µM]	Km [4, 6] [µM]
O=C(O)c1ccc(O)c(O)c1 [PCA, protocatechuic acid]	3.6	1.8	0.50	6.6	570	2.7	920		
O=C(O)c1ccc(O)cc1 [pHBA, p-hydroxybenzoic acid]								56	340
